In PubChem BioAssay AID206 (DTP/NCI, 2004):
“And” between values parts separate entries of the source, which are not always exact repeats. Identical values can stand only once. Inconclusive results are not listed.

Tested on: nude mice, HT29 intrarenal xenograft, tumor weight T/C
Assay: NCI In Vivo Anticancer Drug Screen. Data for tumor model HT29;CX-1 Human Adenocarcinoma (MER+) (intrarenal inoculation) in NU/NU Swiss (nude) mice
Conditions: endpoint: mean tumor weight change, higher = larger tumour
Method in brief: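 Readout: treated/vehicle-control ratio of the measured endpoint (tumor size or survival) in transplanted-tumor mice.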

[1] = dose: 75.0 mg/kg/injection, schedule: Q04DX004 (sc), vehicle: saline with Tween-80
[2] = dose: 150.0 mg/kg/injection, schedule: Q04DX004 (sc), vehicle: saline with Tween-80
[3] = dose: 300.0 mg/kg/injection, schedule: Q04DX004 (sc), vehicle: saline with Tween-80
[4] = dose: 600.0 mg/kg/injection, schedule: Q04DX004 (sc), vehicle: saline with Tween-80
[5] = dose: 150.0 mg/kg/injection, schedule: Q04DX004 (sc), vehicle: Klucel (hydroxypropylcellulose) (HPC)
[6] = dose: 300.0 mg/kg/injection, schedule: Q04DX004 (sc), vehicle: Klucel (hydroxypropylcellulose) (HPC)
[7] = dose: 600.0 mg/kg/injection, schedule: Q04DX004 (sc), vehicle: Klucel (hydroxypropylcellulose) (HPC)
[8] = dose: 1200.0 mg/kg/injection, schedule: Q04DX004 (sc), vehicle: Klucel (hydroxypropylcellulose) (HPC)
[9] = dose: 25.0 mg/kg/injection, schedule: Q01DX010 (sc), vehicle: saline
[10] = dose: 50.0 mg/kg/injection, schedule: Q01DX010 (sc), vehicle: saline
[11] = dose: 100.0 mg/kg/injection, schedule: Q01DX010 (sc), vehicle: saline
[12] = dose: 75.0 mg/kg/injection, schedule: Q04DX004 (sc), vehicle: Klucel (hydroxypropylcellulose) (HPC)
[13] = dose: 200.0 mg/kg/injection, schedule: Q01DX010 (sc), vehicle: saline
[14] = dose: 400.0 mg/kg/injection, schedule: Q01DX010 (sc), vehicle: saline

In the case of O=C(C/C(=N\C(=S)Nc1cc(C(F)(F)F)ccc1Cl)NO)N1CCCC1, the T/C [1] is reported as 51 % of control, the T/C [2] is reported as 49 % of control and the T/C [3] is reported as 80 % of control. The T/C [4] was 70 % of control.

With CC(=O)NC(Cc1ccc(F)cc1)C(=O)O (stereo not drawn) the T/C (dose: 225.0 mg/kg/injection, schedule: Q04DX004 (sc), vehicle: saline with Tween-80) was 108 % of control, the T/C (dose: 450.0 mg/kg/injection, schedule: Q04DX004 (sc), vehicle: saline with Tween-80) was 114 % of control and the T/C (dose: 900.0 mg/kg/injection, schedule: Q04DX004 (sc), vehicle: saline with Tween-80) was 83 % of control. The T/C (dose: 1800.0 mg/kg/injection, schedule: Q04DX004 (sc), vehicle: saline with Tween-80) was 106 % of control.

In the case of OCC1OC(n2cnc3c(NO)ncnc32)C(O)C1O (stereo not drawn), the T/C [5] is reported as 47 % of control, the T/C [6] is reported as 46 % of control and the T/C [7] is reported as 52 % of control. The T/C [8] was 28 % of control.

For OCC1OC(n2cnc3c(=S)nc[nH]c32)C(O)C1O (stereo not drawn), the T/C [9] was 54 % of control, the T/C [10] was 77 % of control and the T/C [11] was 108 % of control.

With C1CC[N-]CC1.[Cl][Pt+2][Cl].[NH-]C1CC1 the T/C (dose: 50.0 mg/kg/injection, schedule: Q04DX004 (sc), vehicle: water) was 51 % of control and 54 % of control and the T/C (dose: 100.0 mg/kg/injection, schedule: Q04DX004 (sc), vehicle: water) was 17 % of control.

With O=NNc1ccccn1 the T/C (dose: 0.13 mg/kg/injection, schedule: Q01DX010 (sc), vehicle: saline) was 150 % of control, the T/C (dose: 0.25 mg/kg/injection, schedule: Q01DX010 (sc), vehicle: saline) was 176 % of control and the T/C (dose: 0.5 mg/kg/injection, schedule: Q01DX010 (sc), vehicle: saline) was 112 % of control. For the same compound, the T/C (dose: 1.0 mg/kg/injection, schedule: Q01DX010 (sc), vehicle: saline) was 208 % of control, the T/C (dose: 4.0 mg/kg/injection, schedule: Q01DX010 (sc), vehicle: saline) was 105 % of control and the T/C (dose: 32.0 mg/kg/injection, schedule: Q01DX010 (sc), vehicle: saline) was 90 % of control.

For CN1CCN(c2ccc3nc(-c4ccc5nc(-c6ccc(O)cc6)[nH]c5c4)[nH]c3c2)CC1, the T/C (dose: 100.0 mg/kg/injection, schedule: Q04DX004 (sc), vehicle: saline) was 35 % of control, the T/C (dose: 200.0 mg/kg/injection, schedule: Q04DX004 (sc), vehicle: saline) was 61 % of control and the T/C (dose: 800.0 mg/kg/injection, schedule: Q04DX004 (sc), vehicle: saline) was 56 % of control.

CN(C)c1ccc(C(=C2C=CC(=[N+](C)C)C=C2)c2ccc(N(C)C)cc2)cc1 (tested in a mixture with another compound) was tested, and the T/C (dose: 1.25 mg/kg/injection, schedule: Q01DX010 (sc), vehicle: saline with Tween-80) was 86 % of control, the T/C (dose: 2.5 mg/kg/injection, schedule: Q01DX010 (sc), vehicle: saline with Tween-80) was 111 % of control and the T/C (dose: 5.0 mg/kg/injection, schedule: Q01DX010 (sc), vehicle: saline with Tween-80) was 100 % of control. The T/C (dose: 10.0 mg/kg/injection, schedule: Q01DX010 (sc), vehicle: saline with Tween-80) was 60 % of control.

In the case of COc1ccc(OC)c(/C=C/c2ccnc3ccccc23)c1, the T/C (dose: 100.0 mg/kg/injection, schedule: Q01DX010 (sc), vehicle: saline with Tween-80) is reported as 92 % of control, the T/C (dose: 200.0 mg/kg/injection, schedule: Q01DX010 (sc), vehicle: saline with Tween-80) is reported as 61 % of control and the T/C (dose: 400.0 mg/kg/injection, schedule: Q01DX010 (sc), vehicle: saline with Tween-80) is reported as 91 % of control. The T/C (dose: 800.0 mg/kg/injection, schedule: Q01DX010 (sc), vehicle: saline with Tween-80) was 113 % of control.

For NC(C(=O)O)c1ccc(CBr)cc1 (stereo not drawn), the T/C (dose: 50.0 mg/kg/injection, schedule: Q04DX004 (sc), vehicle: acid diluted with saline) was 76 % of control, the T/C (dose: 100.0 mg/kg/injection, schedule: Q04DX004 (sc), vehicle: acid diluted with saline) was 70 % of control and the T/C (dose: 200.0 mg/kg/injection, schedule: Q04DX004 (sc), vehicle: acid diluted with saline) was 65 % of control. The T/C (dose: 400.0 mg/kg/injection, schedule: Q04DX004 (sc), vehicle: acid diluted with saline) was 52 % of control.

For CC(=O)Nc1cscc1NC(C)=O, the T/C [1] was 84 % of control, the T/C [2] was 81 % of control and the T/C [3] was 155 % of control. For the same compound, the T/C [4] was 155 % of control, the T/C (dose: 1200.0 mg/kg/injection, schedule: Q04DX004 (sc), vehicle: saline with Tween-80) was 82 % of control and the T/C (dose: 2400.0 mg/kg/injection, schedule: Q04DX004 (sc), vehicle: saline with Tween-80) was 118 % of control.

For Oc1ccccc1C=NCCC[N-]CCCN=Cc1ccccc1O.[Co], the T/C (dose: 25.0 mg/kg/injection, schedule: Q01DX010 (sc), vehicle: suspension in saline) was 109 % of control and the T/C (dose: 100.0 mg/kg/injection, schedule: Q01DX010 (sc), vehicle: suspension in saline) was 73 % of control and 76 % of control.

O=c1s[se]c2ccccc12 was tested, and the T/C [12] was 108 % of control, the T/C [5] was 48 % of control and the T/C [7] was 74 % of control.

With O=C1c2cccc3cc([N+](=O)[O-])cc(c23)C(=O)N1CCN1CCCC1 the T/C (dose: 18.0 mg/kg/injection, schedule: Q04DX004 (sc), vehicle: saline with Tween-80) was 110 % of control and the T/C (dose: 36.0 mg/kg/injection, schedule: Q04DX004 (sc), vehicle: saline with Tween-80) was 115 % of control.

For [Cl][Mn][Cl], the T/C (dose: 18.75 mg/kg/injection, schedule: Q04DX004 (sc), vehicle: saline) was 182 % of control, the T/C (dose: 75.0 mg/kg/injection, schedule: Q04DX004 (sc), vehicle: saline) was 171 % of control and the T/C (dose: 150.0 mg/kg/injection, schedule: Q04DX004 (sc), vehicle: saline) was 121 % of control.

With N#CC(=C1SCS1)[N+](=O)[O-] the T/C (dose: 12.0 mg/kg/injection, schedule: Q04DX004 (sc), vehicle: saline) was 22 % of control, the T/C (dose: 24.0 mg/kg/injection, schedule: Q04DX004 (sc), vehicle: saline) was 154 % of control and the T/C (dose: 48.0 mg/kg/injection, schedule: Q04DX004 (sc), vehicle: saline) was 32 % of control. The T/C (dose: 96.0 mg/kg/injection, schedule: Q04DX004 (sc), vehicle: saline) was 45 % of control.

In the case of C1CCC2[N-]CC3CCCCC3[N-]CC3CCCCC3[N-]CC3CCCCC3[N-]CC2C1.[Cu] (stereo not drawn), the T/C (dose: 6.25 mg/kg/injection, schedule: Q01DX010 (sc), vehicle: Klucel (hydroxypropylcellulose) (HPC)) is reported as 35 % of control, the T/C (dose: 12.5 mg/kg/injection, schedule: Q01DX010 (sc), vehicle: Klucel (hydroxypropylcellulose) (HPC)) is reported as 49 % of control and the T/C (dose: 25.0 mg/kg/injection, schedule: Q01DX010 (sc), vehicle: Klucel (hydroxypropylcellulose) (HPC)) is reported as 54 % of control.

For O=[n+]1c2ccccc2n([O-])c2ccccc21.[Cl][Ni][Cl], the T/C [1] was 92 % of control and the T/C [2] was 89 % of control.

With CNC(=O)c1cccc2c(Nc3ccc(NS(C)(=O)=O)cc3OC)c3cccc(C)c3nc12 the T/C (dose: 50.0 mg/kg/injection, schedule: Q04DX004 (sc), vehicle: other) was 72 % of control and the T/C (dose: 100.0 mg/kg/injection, schedule: Q04DX004 (sc), vehicle: other) was 39 % of control.

For N=C(N)Sc1ccccn1, the T/C [10] was 89 % of control, the T/C [11] was 100 % of control and the T/C [13] was 41 % of control. The T/C [14] was 74 % of control.

In the case of CN(C)N=Nc1cccc(C(N)=O)c1, the T/C (dose: 50.0 mg/kg/injection, schedule: Q04DX004 (sc), vehicle: Klucel (hydroxypropylcellulose) (HPC)) is reported as 92 % of control and 116 % of control.

COC(=O)Nc1cn2cc(C(=O)c3cccs3)ccc2n1 was tested, and the T/C [12] was 91 % of control, the T/C [5] was 65 % of control and the T/C [6] was 50 % of control. For the same compound, the T/C [7] was 54 % of control and 76 % of control, the T/C [8] was 67 % of control and the T/C (dose: 2400.0 mg/kg/injection, schedule: Q04DX004 (sc), vehicle: Klucel (hydroxypropylcellulose) (HPC)) was 36 % of control.

In the case of CCCCNC(C)[C@]1(O)Cc2c(O)c3c(c(O)c2[C@@H](OC2CC(N)C(O)C(C)O2)C1)C(=O)c1c(OC)cccc1C3=O (stereo partly drawn), the T/C (dose: 3.12 mg/kg/injection, schedule: Q01DX010 (sc), vehicle: saline) is reported as 179 % of control, the T/C (dose: 12.5 mg/kg/injection, schedule: Q01DX010 (sc), vehicle: saline) is reported as 103 % of control and the T/C [9] is reported as 94 % of control.

For Nc1ncnc2c1ncn2C1OC(COP(=O)(O)O)C(O)C1O (stereo not drawn), the T/C [11] was 152 % of control, the T/C [13] was 198 % of control and the T/C [14] was 260 % of control. For the same compound, the T/C (dose: 800.0 mg/kg/injection, schedule: Q01DX010 (sc), vehicle: saline) was 67 % of control.
